Measured values as given in ChEMBL document CHEMBL3885861, “Open TG-GATES”.

Organism: Rattus norvegicus
Experiment: Open TG-GATES - Regimen: Single
Format: toxicity, organism-based, Sprague-Dawley
Design: regimen Single, gender Male, age 6 weeks
Details: in vivo, po, 1000 mg/kg, route gavage, dose level High; for APTT / Bas / Eos / Fbg / Hb / Ht / Lym / MCH / MCHC / MCV / Mono / Neu / PT / Plat / RBC / Ret / WBC: tissue Blood; for KIDNEY_L / KIDNEY_R / KIDNEY_TOTAL: tissue Kidney; for LIVER: tissue Liver; for A/G / ALP / ALT / AST / BUN / CRE / Ca / Cl / DBIL / GLC / IP / K / LDH / Na / PL / RALB / TBIL / TC / TG / TP / gamma-GTP: tissue Plasma

SMILES: CN/C(=N/CCSCc1nc[nH]c1C)NC#N [CIMETIDINE]
- TERMINAL_BW (3 h): 215.2 g
- APTT (3 h): 19.1 s
- Bas (3 h): 0%
- Eos (3 h): 1%
- Fbg (3 h): 216.2 mg/dL
- Hb (3 h): 12.3 g/dL
- Ht (3 h): 36.7%
- Lym (3 h): 76.4%
- MCH (3 h): 21.2 pg
- MCHC (3 h): 33.5%
- MCV (3 h): 63.1 fL
- Mono (3 h): 3%
- Neu (3 h): 18.6%
- PT (3 h): 13.1 s
- Plat (3 h): 126.2 x10_4/uL
- RBC (3 h): 582 x10_4/ul
- Ret (3 h): 7.9%
- WBC (3 h): 89.9 x10_2/uL
- KIDNEY_L (3 h): 1 g
- KIDNEY_R (3 h): 1 g
- KIDNEY_TOTAL (3 h): 2 g
- LIVER (3 h): 9.8 g
- A/G (3 h): 1.7
- ALP (3 h): 1031 IU/L
- ALT (3 h): 35.6 IU/L
- AST (3 h): 67 IU/L
- BUN (3 h): 8.6 mg/dL
- CRE (3 h): 0.4 mg/dL
- Ca (3 h): 10.6 mg/dL
- Cl (3 h): 104.4 meq/L
- DBIL (3 h): 0.068 mg/dL
- GLC (3 h): 181.8 mg/dL
- IP (3 h): 8.3 mg/dL
- K (3 h): 4 meq/L
- LDH (3 h): 175 IU/L
- Na (3 h): 141.4 meq/L
- PL (3 h): 150.2 mg/dL
- RALB (3 h): 3.3 g/dL
- TBIL (3 h): 0.1 mg/dL
- TC (3 h): 77.6 mg/dL
- TG (3 h): 46.6 mg/dL
- TP (3 h): 5.3 g/dL
- gamma-GTP (3 h): 1 IU/L
- TERMINAL_BW (6 h): 211.9 g
- APTT (6 h): 19 s
- Bas (6 h): 0%
- Eos (6 h): 0.8%
- Fbg (6 h): 227.4 mg/dL
- Hb (6 h): 13.2 g/dL
- Ht (6 h): 38.2%
- Lym (6 h): 78%
- MCH (6 h): 21.7 pg
- MCHC (6 h): 34.5%
- MCV (6 h): 63 fL
- Mono (6 h): 2.8%
- Neu (6 h): 17.2%
- PT (6 h): 13.5 s
- Plat (6 h): 125.8 x10_4/uL
- RBC (6 h): 607.4 x10_4/ul
- Ret (6 h): 7.6%
- WBC (6 h): 100.8 x10_2/uL
- KIDNEY_L (6 h): 1 g
- KIDNEY_R (6 h): 1 g
- KIDNEY_TOTAL (6 h): 2 g
- LIVER (6 h): 9.6 g
- A/G (6 h): 1.5
- ALP (6 h): 955 IU/L
- ALT (6 h): 34.2 IU/L
- AST (6 h): 65.8 IU/L
- BUN (6 h): 8.2 mg/dL
- CRE (6 h): 0.4 mg/dL
- Ca (6 h): 10.6 mg/dL
- Cl (6 h): 103.6 meq/L
- DBIL (6 h): 0.078 mg/dL
- GLC (6 h): 200.8 mg/dL
- IP (6 h): 9.8 mg/dL
- K (6 h): 4 meq/L
- LDH (6 h): 162.2 IU/L
- Na (6 h): 142.4 meq/L
- PL (6 h): 153.4 mg/dL
- RALB (6 h): 3.4 g/dL
- TBIL (6 h): 0.1 mg/dL
- TC (6 h): 75.6 mg/dL
- TG (6 h): 83.2 mg/dL
- TP (6 h): 5.6 g/dL
- gamma-GTP (6 h): 1.2 IU/L
- TERMINAL_BW (9 h): 208.6 g
- APTT (9 h): 18.7 s
- Bas (9 h): 0%
- Eos (9 h): 1%
- Fbg (9 h): 229.2 mg/dL
- Hb (9 h): 13.1 g/dL
- Ht (9 h): 37.4%
- Lym (9 h): 80%
- MCH (9 h): 22.1 pg
- MCHC (9 h): 35.1%
- MCV (9 h): 63 fL
- Mono (9 h): 2.4%
- Neu (9 h): 15.6%
- PT (9 h): 14.1 s
- Plat (9 h): 120.4 x10_4/uL
- RBC (9 h): 594.2 x10_4/ul
- Ret (9 h): 7.9%
- WBC (9 h): 94.9 x10_2/uL
- KIDNEY_L (9 h): 0.9 g
- KIDNEY_R (9 h): 0.9 g
- KIDNEY_TOTAL (9 h): 1.9 g
- LIVER (9 h): 8.9 g
- A/G (9 h): 1.7
- ALP (9 h): 1031 IU/L
- ALT (9 h): 32.8 IU/L
- AST (9 h): 62.4 IU/L
- BUN (9 h): 8.2 mg/dL
- CRE (9 h): 0.4 mg/dL
- Ca (9 h): 10.3 mg/dL
- Cl (9 h): 103.6 meq/L
- DBIL (9 h): 0.068 mg/dL
- GLC (9 h): 193.6 mg/dL
- IP (9 h): 9.7 mg/dL
- K (9 h): 3.7 meq/L
- LDH (9 h): 157 IU/L
- Na (9 h): 142 meq/L
- PL (9 h): 150.4 mg/dL
- RALB (9 h): 3.5 g/dL
- TBIL (9 h): 0.1 mg/dL
- TC (9 h): 77.2 mg/dL
- TG (9 h): 58.6 mg/dL
- TP (9 h): 5.5 g/dL
- gamma-GTP (9 h): 1.4 IU/L
- TERMINAL_BW (24 h): 223 g
- APTT (24 h): 19.3 s
- Bas (24 h): 0%
- Eos (24 h): 1%
- Fbg (24 h): 212.4 mg/dL
- Hb (24 h): 13.1 g/dL
- Ht (24 h): 39%
- Lym (24 h): 80.6%
- MCH (24 h): 21.3 pg
- MCHC (24 h): 33.6%
- MCV (24 h): 63.4 fL
- Mono (24 h): 2.4%
- Neu (24 h): 14.8%
- PT (24 h): 13 s
- Plat (24 h): 122.4 x10_4/uL
- RBC (24 h): 616 x10_4/ul
- Ret (24 h): 6.8%
- WBC (24 h): 101.7 x10_2/uL
- KIDNEY_L (24 h): 1 g
- KIDNEY_R (24 h): 1 g
- KIDNEY_TOTAL (24 h): 2 g
- LIVER (24 h): 10.6 g
- A/G (24 h): 1.6
- ALP (24 h): 1054.4 IU/L
- ALT (24 h): 34.2 IU/L
- AST (24 h): 68.8 IU/L
- BUN (24 h): 17.8 mg/dL
- CRE (24 h): 0.4 mg/dL
- Ca (24 h): 10.6 mg/dL
- Cl (24 h): 102 meq/L
- DBIL (24 h): 0.1 mg/dL
- GLC (24 h): 206.8 mg/dL
- IP (24 h): 7.7 mg/dL
- K (24 h): 3.8 meq/L
- LDH (24 h): 200 IU/L
- Na (24 h): 140 meq/L
- PL (24 h): 148 mg/dL
- RALB (24 h): 3.3 g/dL
- TBIL (24 h): 0.2 mg/dL
- TC (24 h): 76.2 mg/dL
- TG (24 h): 96.2 mg/dL
- TP (24 h): 5.4 g/dL
- gamma-GTP (24 h): 1.4 IU/L
